Like-named read-outs stand apart in the source and are kept apart here. Marks after values point to notes of the source that are not given here.
Legend:
HL-60 cells [1] = test: Cytotoxicity as LDH release in HL-60 cells; type: cell-based, human
Outline: (§1)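 Cells in 24-well plates at 37° C, 5% CO2 (A549 in F12, PC-3 in F12K, HL-60 in IMDM, with FBS). LDH in medium and lysates measured by NADH consumption at 340 nm with 0.24 mM NADH and 9.8 mM pyruvate, 30° C; % release = supernatant/(supernatant+lysate)×100.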

PC-3 cells [2] = test: Intracellular GSH levels by HPLC-EC in PC-3 cells; type: cell-based, human; details: for activity at 25 µM: Homo sapiens, read-out: Int. GSH % con.
Outline: (§2)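 Cultured cells were lysed in water with 40 μM digitonin for 30 min at room temperature, acidified to 1% meta-phosphoric acid, sonicated and centrifuged. GSH in the supernatant was measured by HPLC with coulometric electrochemical detection at +0.75 V vs. H/Pd.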

A549 cells [3] = test: Intracellular GSH levels by HPLC-EC in A549 cells; type: cell-based, human; details: for activity at 25 µM: Homo sapiens
Outline: as §2

A549 cells [4] = test: Cytotoxicity as LDH release in A549 cells; type: cell-based, human
Outline: as §1

PC-3 cells [5] = test: Cytotoxicity as LDH release in PC-3 cells; type: cell-based, human
Outline: as §1

A549 cells [6] = test: Extracellular GSH in culture supernatants of A549 cells (HPLC-FD, mBBr); type: cell-based, human; details: 25 μM, 2 hours of treatment (FIG. 19D)
Description: Extracellular levels of GSH. Extracellular GSH in the culture media supernatants of A549, HL-60 and PC-3 cells were measured by an HPLC-FD method of GSH analysis after derivatization with monobromobimane (mBBr). […] The mixture was incubated in dark at room temperature for 30 min, and the reaction was stopped by addition of 10 μl of 70% perchloric acid. The samples were centrifuged at 16,000 g for 10 min and 0.18 ml of supernatant placed in vials for HPLC analysis. The HPLC column used was Synergi 4u Hydro-RP 80A (C18) (150×4.6 mm) from Phenomenex (Torrance, Calif.) and the mobile phase a mixture of 1% acetic acid in H2O (pH adjusted to 4.25 using NH4OH) with 7% acetonitrile. The flow rate was 1 ml·min^−1 and the injection volume 1 μl. The detector excitation and emission wavelengths were […], respectively. The retention time for the GSH derivative was 9.5 min.

HL-60 cells [7] = test: Intracellular GSH levels by HPLC-EC in HL-60 cells; type: cell-based, human; details: for activity at 25 µM: HL-60, 25 μM
Outline: as §2

epithelial cells [8] = test: Effects of compounds on extracellular GSH transport (Table 3); type: cell-based
epithelial cells [9] = test: Extracellular GSH transport, Transwell Studies (Table 3); type: cell-based
HL-60 cells [10] = test: Cellular superoxide by flow cytometry with hydroethidine in HL-60 cells; type: cell-based, human
Description: Flow cytometry. In one exemplary method, cellular superoxide (O2^−) was measured by flow cytometry analysis using hydroethidine (HE) (30). Untreated and treated HL-60 cells (approximately 10^6) were exposed to HE (1 μM from 1 mM stock solutions in DMSO) for 30 min, then were centrifuged at 3,500 g for 15 min, and washed once with 1 ml ice-cold PBS. Cells were re-suspended in 0.5 ml ice-cold PBS, and HE oxidation product, i.e., ethidium bromide (EB), analyzed within 30 min using the red channel (PE) of a FACSCalibur flow cytometer from Becton Dickinson Biosciences (San Jose, Calif.). The total number of cell counts was 25,000.

[11] = Epithelial lining fluid (ELF) GSH concentration in dexamethasone treated mice; type: in vivo, Wild type (C57/B6) mice; details: 1 mg/kg intraperitoneal daily for two days, BALF at 48 hours; mean±standard error
Description: FIG. 17 Dexamethasone-Induced Changes in Epithelial Lining Fluid (ELF) Glutathione (GSH) Concentrations. Wild type (C57/B6) mice were given a 1 mg/kg dexamethasone (DEX) injection (intraperitoneal) daily for two days. Bronchoalveolar lavage fluid (BALF) was obtained at 48 hours after the first initial dose and GSH concentrations determined. BALF was obtained through a tracheal canula with a single 2.0 mL aliquots of phosphate-buffered saline (pH 7.4) that was instilled into the lung and withdrawn only once. The BALF was centrifuged at 4000×g to remove cells (i.e., alveolar macrophages). The cell-free BALF was acidified with metaphosphoric acid to a final concentration of 1% metaphosphoric acid and centrifuged at 20,000×g to pellet the precipitated proteins. GSH concentrations were determined by HPLC coupled with electrochemical detection. ELF concentrations of GSH were calculated from BALF concentrations multiplied by a dilution factor derived from the difference in serum and BALF urea concentrations. […] Data are shown as the mean±standard error for n≧4 with significance attained at p≦0.05.
Serum and BALF Urea Concentrations. […] ELF concentrations are then calculated by multiplying the BALF concentrations by the dilution factor. Urea concentrations in the samples are determined using a commercially available reagent (Sigma Diagnostics 66-20; St. Louis, Mo.).

P-gp = details: single dose; renal basement membrane, liver and intestine; cited from earlier work
[12] = Homo sapiens, HL-60, 50 μM, 48 hours treatment, read-out: LDH rel. % con.
[13] = PC-3, 25 μM, 24 hours treatment
[14] = A549, 25 μM, 2 h, read-out: Intracellular GSH levels, % compared to control
[15] = A549, 25 μM, 4 h, read-out: Intracellular GSH levels, % compared to control
[16] = A549, 25 μM, 24 hours treatment, read-out: Int. GSH % con.
[17] = Homo sapiens, A549, 75 μM, 48 hours treatment, read-out: LDH rel. % con.
[18] = Homo sapiens, 24 hours treatment, read-out: Int. GSH % con.
[19] = Homo sapiens, PC-3, 50 μM, 48 hours treatment, read-out: LDH rel. % con.

O=C(/C=C/c1ccccc1)c1ccccc1O [2′-HC, 2′-hydroxychalcone]
LDH release, % of control at 50 µM (HL-60 cells [1]; [12]): 320% | activity at 25 µM (PC-3 cells [2]; [13]): 93% | activity at 25 µM (A549 cells [3]; [14]): < 5% | activity at 25 µM (A549 cells [3]; [15]): < 5% | activity at 25 µM (A549 cells [3]; [16]): < 5% | LDH release, % of control at 75 µM (A549 cells [4]; [17]): 515% | LDH release, % of control at 25 µM (PC-3 cells [5]; Homo sapiens, PC-3, 25 μM, 48 hours treatment, read-out: LDH rel. % con.): 227% | extracellular GSH levels (A549 cells [6]): increased levels of GSH in the supernatants | activity at 25 µM (HL-60 cells [7]; [18]): < 5%

COc1ccc(-c2coc3cc(O)cc(O)c3c2=O)cc1 [Biochanin A]
LDH rel. % con. (HL-60 cells [1]; HL-60, 50 μM, 48 hours treatment): 133 % con. | % Increase Over Control (extracellular GSH) (epithelial cells [8]; 50 μM): 133 ^c % | Int. GSH % con. (PC-3 cells [2]; [13]): 81 % con. | Intracellular GSH levels, % compared to control (A549 cells [3]; A549, 25 μM, 4 h): 36.8 ± 0.9% | Int. GSH % con. (A549 cells [3]; A549, 25 μM, 24 hours treatment): <5 % con. | % Increase Over Control (extracellular GSH) (epithelial cells [9]; 50 μM): 174 ^a % | LDH rel. % con. (A549 cells [4]; A549, 75 μM, 48 hours treatment): 230 % con. | LDH rel. % con. (PC-3 cells [5]; PC-3, 50 μM, 48 hours treatment): 127 % con. | Int. GSH % con. (HL-60 cells [7]; HL-60, 75 μM, 24 hours treatment): 20 % con.

O=C(/C=C/c1ccccc1)c1ccccc1 [Chalcone]
LDH release, % of control at 50 µM (HL-60 cells [1]; [12]): 236% | activity at 25 µM (PC-3 cells [2]; [13]): 119% | activity at 25 µM (A549 cells [3]; [14]): 48.5 ± 2.1% | activity at 25 µM (A549 cells [3]; [16]): < 5% | LDH release, % of control at 75 µM (A549 cells [4]; [17]): 150% | LDH release, % of control at 50 µM (PC-3 cells [5]; [19]): 229% | extracellular GSH levels (A549 cells [6]): increased levels of GSH in the supernatants | activity at 25 µM (HL-60 cells [7]; [18]): 100%

O=c1cc(-c2ccccc2)oc2cc(O)cc(O)c12 [Chrysin, 5,7 dihydroxyflavone]
toxicity (HL-60 cells [1]; HL-60 cells, 25 μM (FIG. 20A)): not toxic | effect on the toxicity of curcumin (25 μM), LDH release (HL-60 cells [1]; HL-60 cells, 48 hours, compound 25 μM (FIG. 20A)): potentiated the toxicity of curcumin | LDH release, % of control at 50 µM (HL-60 cells [1]; [12]): 195% | activity at 25 µM (PC-3 cells [2]; [13]): 51% | intracellular GSH, combination with curcumin (PC-3 cells [2]; PC-3 cells (data not shown)): resulted in GSH depletion | depletion of intracellular GSH (PC-3 cells [2]; PC-3 cells, 25 μM, 24 hours): 50% | effect on intracellular GSH (words) (A549 cells [3]; A549 cells): very potent inducer of intracellular GSH depletion | depletion of intracellular GSH (A549 cells [3]; A549 cells, 25 μM, 2 hours of treatment): 50% | effect on intracellular GSH (words) (A549 cells [3]; A549 cells, listed as chrysin): one active flavone-like structure for inducing GSH depletion | activity at 25 µM (A549 cells [3]; [14]): 47.2 ± 4% | activity at 25 µM (A549 cells [3]; [15]): 5.2 ± 0.5% | activity at 25 µM (A549 cells [3]; [16]): < 5% | O2^− levels on adding compound to curcumin treatment (HL-60 cells [10]; HL-60 cells (FIG. 21B)): no increase of O2^− levels was observed, but rather a decrease after 4 hours | O2^− levels (HL-60 cells [10]; HL-60 cells, 25 μM (FIG. 21B)): little change in O2^− levels | effect on the toxicity of etoposide (A549 cells [4]; A549 cells, 48 hours, etoposide (10 µM)): failed to potentiate etoposide's toxicity | toxicity (A549 cells [4]; A549 cells, after 48 hours of treatment): relatively low toxicity | LDH release, % of control at 75 µM (A549 cells [4]; [17]): 225% | LDH release, % of control at 50 µM (PC-3 cells [5]; [19]): 132% | effect on curcumin-induced toxicity, LDH release (PC-3 cells [5]; PC-3 cells, 48 hours (FIG. 20C)): potentiated | effect on the toxicities of rotenone (20 μM), 2-ME (50 μM) and etoposide (40 μM) (PC-3 cells [5]; PC-3 cells, 48 hours, compound 10-20 μM): potentiated | effect on intracellular GSH (words) (HL-60 cells [7]; HL-60 cells): one active flavone-like structure for inducing GSH depletion | intracellular GSH levels in presence of curcumin (HL-60 cells [7]; HL-60 cells (FIG. 20B)): induced GSH depletion in presence of curcumin | depletion of intracellular GSH (HL-60 cells [7]; HL-60 cells, 50 μM, 24 hours): 50% | activity at 50 µM (HL-60 cells [7]; Homo sapiens, HL-60, 50 μM, 24 hours treatment, read-out: Int. GSH % con.): 40%

C[C@@H]1C[C@H]2[C@@H]3CCC4=CC(=O)C=C[C@]4(C)[C@@]3(F)[C@@H](O)C[C@]2(C)[C@@]1(O)C(=O)CO [Dexamethasone, 9-fluoro-11 b,17,21-trihydroxy-16a-methylpregna-1,4-diene-3,20-dione, reference compound]
activation at 50 µM (epithelial cells [8]; Epithelial cell, 50 μM, read-out: % Increase Over Control (extracellular GSH)): 178% | ELF concentrations of GSH [11]: 75.3 ± 12.0 µM

COc1ccc2c(c1)c(CC(=O)O)c(C)n2C(=O)c1ccc(Cl)cc1 [Indomethacin, 1-(4-chlorobenzoyl)-5-methoxy-2-methyl-1H-indole-3-acetic acid, reference compound]
LDH release, % of control at 25 µM (HL-60 cells [1]; Homo sapiens, HL-60, 25 μM, 48 hours treatment, read-out: LDH rel. % con.): 126% | activation at 100 µM (epithelial cells [8]; Epithelial cell, 100 μM, read-out: % Increase Over Control (extracellular GSH)): 235% | activity at 25 µM (PC-3 cells [2]; [13]): 75% | activity at 25 µM (A549 cells [3]; [14]): 71.4 ± 2.8% | activity at 25 µM (A549 cells [3]; [15]): 7.8 ± 1.2% | activity at 25 µM (A549 cells [3]; [16]): < 5% | % Increase Over Control (extracellular GSH) (epithelial cells [9]; 100 μM): 136 ^a % | LDH release, % of control at 50 µM (A549 cells [4]; Homo sapiens, A549, 50 μM, 48 hours treatment, read-out: LDH rel. % con.): 251% | LDH release, % of control at 50 µM (PC-3 cells [5]; [19]): 122% | activity at 25 µM (HL-60 cells [7]; [18]): 49%

N.N.[Cl][Pt][Cl] [cisplatin, cis-dichlorodiammne platinum (II)]
induction of P-gp (P-gp): 200-300 ×

— US7790762B2, “Compounds and methods for thiol-containing compound efflux and cancer treatment” (National Jewish Health, priority 2002, dated 2010)
